# In US20220125903A1, “METHODS FOR IMPROVING THE EFFICACY OF A SURVIVIN THERAPEUTIC IN THE TREATMENT OF TUMORS” (IMMUNOVACCINE TECHNOLOGIES INC., priority 2018, published 2022):
# Marks after values point to notes of the source that are not given here.
# How the values were obtained:
# recurrent ovarian cancer = experiment: Phase 1b study: DPX-Survivac with low dose cyclophosphamide and epacadostat, tumor response by modified RECIST 1.1; assay type: in vivo, human; conditions: for CR (complete response), number of subjects / DCR (CR + PR + SD), disease control rate / DCR (CR + PR + SD), number of subjects / ORR (overall response rate), % of subjects / ORR (overall response rate), number of subjects / PR (partial response), % of subjects / PR (partial response), number of subjects / Partial response, % of subjects / Partial response, subjects/N / Progressive disease, % of subjects / Progressive disease, subjects/N / Stable disease, % of subjects / Stable disease, subjects/N / Tumor regressions, % of subjects / Tumor regressions, subjects/N / PD (progressive disease), % of subjects / PD (progressive disease), subjects/N / PR (partial response), subjects/N: with DPX-Survivac + low dose CPA
# survivin = experiment: Cell mediated immunity: survivin-specific T cell response by ELISpot (Phase 1b); assay type: in vivo, human; conditions: with DPX-Survivac + low dose CPA
# Description: Cell Mediated Immunity was determined by immunogenicity analysis and describe as the percentage of subjects with a positive immune response to one or more epitopes in the T cell activation therapeutic as well as changes in immune cell infiltration to the tumor. For ELISpot, antigen-specific response rate greater than Mean+2SD (typically>64 SFU/106 PBMC) obtained from pre-treatment and/or unstimulated/background cells was considered a positive response. Further, based on the magnitude of ELISpot response following treatment, subjects were classified as low (>64 to <512 SFU/106 PBMC) or high (>512 SFU/106 PBMC) immune responders to treatment or described as having a high and sustained immune response (3 separate time points >512 SFU/106 PBMC).
# [1] = all epacadostat doses (N = 15), total target lesion size < 5 cm
# [2] = all epacadostat doses (N = 38), total target lesion size ≥ 5 cm
# [3] = epacadostat 100 mg (N = 5), sum of target lesion at baseline <5 cm
# [4] = epacadostat 100 mg (N = 14), all subjects
# [5] = epacadostat 100 mg BID (N = 5), total target lesion size < 5 cm
# [6] = epacadostat 100 mg BID (N = 9), total target lesion size ≥ 5 cm
# [7] = epacadostat 100 mg and 300 mg, Total (N = 53)
# [8] = epacadostat 300 mg (N = 10), sum of target lesion at baseline <5 cm, partially monitored data
# [9] = epacadostat 300 mg (N = 39), all subjects, partially monitored data
# [10] = epacadostat 300 mg BID (N = 10), total target lesion size < 5 cm
# [11] = epacadostat 300 mg BID (N = 29), total target lesion size ≥ 5 cm
# [12] = epacadostat Total (N = 15), sum of target lesion at baseline <5 cm
compound,measurement,setting,value
NS(=O)(=O)NCCNc1nonc1/C(=N\c1ccc(F)c(Br)c1)NO [Epacadostat],dose related activity of epacadostat,"recurrent ovarian cancer; preliminary analysis, 100 mg vs 300 mg combined with DPX-Survivac and low dose CPA",absence of dose related activity
same,"CR (complete response), number of subjects",recurrent ovarian cancer; [1],0
same,"DCR (CR + PR + SD), disease control rate",recurrent ovarian cancer; [1],(66.7%)
same,"DCR (CR + PR + SD), number of subjects",recurrent ovarian cancer; [1],10
same,"ORR (overall response rate), % of subjects",recurrent ovarian cancer; [1],(26.7%)
same,"ORR (overall response rate), number of subjects",recurrent ovarian cancer; [1],4
same,"PR (partial response), % of subjects",recurrent ovarian cancer; [1],(26.7%)
same,"PR (partial response), number of subjects",recurrent ovarian cancer; [1],4
same,"CR (complete response), number of subjects",recurrent ovarian cancer; [2],0
same,"DCR (CR + PR + SD), disease control rate",recurrent ovarian cancer; [2],(39.5%)
same,"DCR (CR + PR + SD), number of subjects",recurrent ovarian cancer; [2],15
same,"ORR (overall response rate), % of subjects",recurrent ovarian cancer; [2],(2.6%)
same,"ORR (overall response rate), number of subjects",recurrent ovarian cancer; [2],1
same,"PR (partial response), % of subjects",recurrent ovarian cancer; [2],(2.6%)
same,"PR (partial response), number of subjects",recurrent ovarian cancer; [2],1
same,"Partial response, % of subjects",recurrent ovarian cancer; [3],(60.0%)
same,"Partial response, subjects/N",recurrent ovarian cancer; [3],3/5
same,"Progressive disease, % of subjects",recurrent ovarian cancer; [3],(0%)
same,"Progressive disease, subjects/N",recurrent ovarian cancer; [3],0/5
same,"Stable disease, % of subjects",recurrent ovarian cancer; [3],(40.0%)
same,"Stable disease, subjects/N",recurrent ovarian cancer; [3],2/5
same,"Tumor regressions, % of subjects",recurrent ovarian cancer; [3],(100%)
same,"Tumor regressions, subjects/N",recurrent ovarian cancer; [3],5/5
same,"PD (progressive disease), % of subjects",recurrent ovarian cancer; [4],(35.7%)
same,"PD (progressive disease), subjects/N",recurrent ovarian cancer; [4],5/14
same,"PR (partial response), % of subjects",recurrent ovarian cancer; [4],(21.4%)
same,"PR (partial response), subjects/N",recurrent ovarian cancer; [4],3/14
same,"Tumor regressions, % of subjects",recurrent ovarian cancer; [4],(35.7%)
same,"Tumor regressions, subjects/N",recurrent ovarian cancer; [4],5/14
same,"CR (complete response), number of subjects",recurrent ovarian cancer; [5],0
same,"DCR (CR + PR + SD), disease control rate",recurrent ovarian cancer; [5],(100%)
same,"DCR (CR + PR + SD), number of subjects",recurrent ovarian cancer; [5],5
same,"ORR (overall response rate), % of subjects",recurrent ovarian cancer; [5],(60%)
same,"ORR (overall response rate), number of subjects",recurrent ovarian cancer; [5],3
same,"PR (partial response), % of subjects",recurrent ovarian cancer; [5],(60.0%)
same,"PR (partial response), number of subjects",recurrent ovarian cancer; [5],3
same,"CR (complete response), number of subjects",recurrent ovarian cancer; [6],0
same,"DCR (CR + PR + SD), disease control rate",recurrent ovarian cancer; [6],(33.3%)
same,"DCR (CR + PR + SD), number of subjects",recurrent ovarian cancer; [6],3
same,"ORR (overall response rate), number of subjects",recurrent ovarian cancer; [6],0
same,"PR (partial response), number of subjects",recurrent ovarian cancer; [6],0
same,"PD (progressive disease), % of subjects",recurrent ovarian cancer; [7],(34.0%)
same,"PD (progressive disease), subjects/N",recurrent ovarian cancer; [7],18/53
same,"PR (partial response), % of subjects",recurrent ovarian cancer; [7],(9.4%)
same,"PR (partial response), subjects/N",recurrent ovarian cancer; [7],5/53
same,"Tumor regressions, % of subjects",recurrent ovarian cancer; [7],(20.1%)
same,"Tumor regressions, subjects/N",recurrent ovarian cancer; [7],11/53
same,"Partial response, % of subjects",recurrent ovarian cancer; [8],(10.0%)
same,"Partial response, subjects/N",recurrent ovarian cancer; [8],1/10
same,"Progressive disease, % of subjects",recurrent ovarian cancer; [8],(50.0%)
same,"Progressive disease, subjects/N",recurrent ovarian cancer; [8],5/10
same,"Stable disease, % of subjects",recurrent ovarian cancer; [8],(40.0%)
same,"Stable disease, subjects/N",recurrent ovarian cancer; [8],4/10
same,"Tumor regressions, % of subjects",recurrent ovarian cancer; [8],(30.0%)
same,"Tumor regressions, subjects/N",recurrent ovarian cancer; [8],3/10
same,"PD (progressive disease), % of subjects",recurrent ovarian cancer; [9],(33.3%)
same,"PD (progressive disease), subjects/N",recurrent ovarian cancer; [9],13/39
same,"PR (partial response), % of subjects",recurrent ovarian cancer; [9],(5.1%)
same,"PR (partial response), subjects/N",recurrent ovarian cancer; [9],2/39
same,"Tumor regressions, % of subjects",recurrent ovarian cancer; [9],(15.4%)
same,"Tumor regressions, subjects/N",recurrent ovarian cancer; [9],6/39
same,"CR (complete response), number of subjects",recurrent ovarian cancer; [10],0
same,"DCR (CR + PR + SD), disease control rate",recurrent ovarian cancer; [10],(50.0%)
same,"DCR (CR + PR + SD), number of subjects",recurrent ovarian cancer; [10],5
same,"ORR (overall response rate), % of subjects",recurrent ovarian cancer; [10],(10.0%)
same,"ORR (overall response rate), number of subjects",recurrent ovarian cancer; [10],1
same,"PR (partial response), % of subjects",recurrent ovarian cancer; [10],(10.0%)
same,"PR (partial response), number of subjects",recurrent ovarian cancer; [10],1
same,"CR (complete response), number of subjects",recurrent ovarian cancer; [11],0
same,"DCR (CR + PR + SD), disease control rate",recurrent ovarian cancer; [11],(41.4%)
same,"DCR (CR + PR + SD), number of subjects",recurrent ovarian cancer; [11],12
same,"ORR (overall response rate), % of subjects",recurrent ovarian cancer; [11],(3.4%)
same,"ORR (overall response rate), number of subjects",recurrent ovarian cancer; [11],1
same,"PR (partial response), % of subjects",recurrent ovarian cancer; [11],(3.4%)
same,"PR (partial response), number of subjects",recurrent ovarian cancer; [11],1
same,"Partial response, % of subjects",recurrent ovarian cancer; [12],(26.7%)
same,"Partial response, subjects/N",recurrent ovarian cancer; [12],4/15
same,"Progressive disease, % of subjects",recurrent ovarian cancer; [12],(33.3%)
same,"Progressive disease, subjects/N",recurrent ovarian cancer; [12],5/15
same,"Stable disease, % of subjects",recurrent ovarian cancer; [12],(33.3%)
same,"Stable disease, subjects/N",recurrent ovarian cancer; [12],5/15
same,"Tumor regressions, % of subjects",recurrent ovarian cancer; [12],(53.3%)
same,"Tumor regressions, subjects/N",recurrent ovarian cancer; [12],8/15
same,"Positive T cell response (survivin), % of subjects",survivin; [3],(100%)
same,"Positive T cell response (survivin), subjects/evaluable",survivin; [3],4/4
same,"Positive T cell response (survivin), % of subjects",survivin; [4],(100%)
same,"Positive T cell response (survivin), subjects/evaluable",survivin; [4],11/11
same,"Positive T cell response (survivin), % of subjects",survivin; [7],(81.5%)
same,"Positive T cell response (survivin), subjects/evaluable",survivin; [7],22/27
same,"Positive T cell response (survivin), % of subjects",survivin; [8],(25%)^a
same,"Positive T cell response (survivin), subjects/evaluable",survivin; [8],1/4
same,"Positive T cell response (survivin), % of subjects",survivin; [9],(56.3%)^b
same,"Positive T cell response (survivin), subjects/evaluable",survivin; [9],9/16
